Source: patent US20110166223A1, “METHODS OF INHIBITING FGFR3 SIGNALING” (CEDARS-SINAI MEDICAL CENTER, priority 2008, published 2011)
“Also recorded” adds a separate entry of the source.

Key:
[1] = system: FGF2/FGFR3-mediated extracellular matrix loss in RCS chondrocytes; test: [35S]sulfate labeling assay in RCS chondrocytes; type: cell-based, rat; conditions: FGF2 5 ng/ml, NF449 20 μM, 72 hours, FIG. 2b
Protocol: For Alcian blue staining, growing RCS cultures were treated with FGF2 (5 ng/ml) alone or in the presence of NF449 (20 μM) for 72 hours, fixed with 4% paraformaldehyde and stained for 30 minutes with Alcian blue. For quantification of the FGF2/FGFR3-mediated extracellular matrix loss, RCS chondrocytes were treated with FGF2 (5 ng/ml) and NF449 (20 μM) for 72 hours in the presence of 10 μCi/ml of [^35S]sulfate (Perkin Elmer, Boston, Mass.). Following the cultivation period, cells were harvested and the incorporated radioactivity was determined by liquid scintillation.
Apart from the growth arrest, aberrant FGFR3 signaling in chondrocytes leads to the loss of their extracellular matrix, rich in sulfated proteoglycans, due to inhibition of matrix synthesis as well as degradation of the existing matrix. The inventors therefore evaluated whether NF449 rescues the extracellular matrix loss induced by FGFR3 activation. […] Similar to previous findings, this matrix was lost after the 72-hours of FGF2 treatment. […] To further confirm this observation, cells were incubated with [^35S]sulfate for 72 hours to label the extracellular matrix and determined the effect of FGF2 and NF449 on the cell-bound radioactivity.

[2] = molecular target: T1, full-length FLAG-tagged K650E-FGFR3 (Homo sapiens, UniProt P22607, K650E); test: Cell-free K650E-FGFR3 kinase assay with STAT1 as substrate; type: biochemical; conditions: immunopurified from CHO cells; FIG. 6
T1 construct: using full-length FLAG-tagged K650E-FGFR3 that was expressed in CHO cells; made in house; host or cells: CHO cells (transient transfection, anti-FLAG immunoprecipitation)
T1 sequence (P22607 23-806 K650E): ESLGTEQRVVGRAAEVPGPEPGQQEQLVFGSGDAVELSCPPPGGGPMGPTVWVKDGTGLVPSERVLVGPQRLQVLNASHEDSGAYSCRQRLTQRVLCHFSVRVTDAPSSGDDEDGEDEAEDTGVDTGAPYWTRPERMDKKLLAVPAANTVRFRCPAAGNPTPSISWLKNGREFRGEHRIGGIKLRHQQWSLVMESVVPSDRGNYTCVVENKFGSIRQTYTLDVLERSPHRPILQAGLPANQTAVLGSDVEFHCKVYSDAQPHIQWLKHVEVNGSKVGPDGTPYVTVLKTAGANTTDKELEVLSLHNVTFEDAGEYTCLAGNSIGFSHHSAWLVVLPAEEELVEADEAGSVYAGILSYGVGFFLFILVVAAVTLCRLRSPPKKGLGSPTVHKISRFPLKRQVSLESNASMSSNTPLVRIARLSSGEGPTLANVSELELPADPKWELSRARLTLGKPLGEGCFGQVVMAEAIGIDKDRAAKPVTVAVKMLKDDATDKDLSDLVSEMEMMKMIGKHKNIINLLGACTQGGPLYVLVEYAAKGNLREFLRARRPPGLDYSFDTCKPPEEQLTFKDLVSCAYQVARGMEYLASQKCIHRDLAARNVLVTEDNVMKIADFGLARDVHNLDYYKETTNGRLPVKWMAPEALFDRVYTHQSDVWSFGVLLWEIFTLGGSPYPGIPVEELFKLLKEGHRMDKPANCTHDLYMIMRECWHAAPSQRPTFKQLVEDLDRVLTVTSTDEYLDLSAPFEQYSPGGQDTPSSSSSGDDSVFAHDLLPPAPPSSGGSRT
Protocol: FIG. 6, in accordance with an embodiment herein, depicts 4,4′,4″,4′″-[carbonyl-bis[imino-5,1,3-benzenetriyl bis-{carbonylimino}]]tetrakis-{benzene-1,3-disulfonic acid} inhibits K650E-FGFR3 in a kinase assay. Cell-free K650E-FGFR3 kinase assays were carried-out using full-length FLAG-tagged K650E-FGFR3 that was expressed in CHO cells, purified by immunoprecipitation with FLAG antibody and subjected to a kinase reaction with recombinant STAT1 as a substrate and 4,4′,4″,4′″-[carbonyl-bis[imino-5,1,3-benzenetriyl bis-{carbonylimino}]]tetrakis-{benzene-1,3-disulfonic acid} added to the kinase reaction. Cells transfected with plasmid encoding green fluorescent protein (GFP) serve as a negative control for the immunoprecipitation. […]
OPM2 and KMS11 cells were lysed in ice-cold immunoprecipitation buffer (50 mM Tris-HCl pH 7.4, 150 mM NaCl, 0.5% NP-40, 1 mM EDTA, 25 mM NaF) supplemented with proteinase inhibitors and 10 mM sodium orthovanadate. […] Western blotting signal was quantified by determining the integrated optical density (I.O.D.) of a given band using Scion Image software (Scion Corporation, Frederick, Mass.). […] FGFR3-mediated phosphorylation of STAT1 was detected by western blotting with P-STAT1^Y701 antibody (Cell Signaling). […]

O=C(Nc1cc(C(=O)Nc2ccc(S(=O)(=O)O)cc2S(=O)(=O)O)cc(C(=O)Nc2ccc(S(=O)(=O)O)cc2S(=O)(=O)O)c1)Nc1cc(C(=O)Nc2ccc(S(=O)(=O)O)cc2S(=O)(=O)O)cc(C(=O)Nc2ccc(S(=O)(=O)O)cc2S(=O)(=O)O)c1 [NF449, 4,4′,4″,4′″-[carbonyl-bis[imino-5,1,3-benzenetriylbis-{carbonylimino}]]tetrakis-{benzene-1,3-disulfonic acid}]
FGF2-mediated inhibition of [35S]sulfate incorporation (loss of sulfated proteoglycans) [1]: completely rescued
FGF2-mediated inhibition of [35S]sulfate incorporation (loss of sulfated proteoglycans) ([1]; listed as 4,4′,4″,4′″-[carbonyl-bis[imino-5,1,3-benzenetriyl bis-{carbonylimino}]]tetrakis): reversed
effect on K650E-FGFR3 kinase activity (Y701 phosphorylation of STAT1) [2]: inhibitory effect; also recorded: inhibited K650E-FGFR3 kinase activity
